For assay [1], the target named is T1, Muscarinic acetylcholine receptor M5 (Homo sapiens, UniProt P08912).
T1 sequence (P08912 whole entry): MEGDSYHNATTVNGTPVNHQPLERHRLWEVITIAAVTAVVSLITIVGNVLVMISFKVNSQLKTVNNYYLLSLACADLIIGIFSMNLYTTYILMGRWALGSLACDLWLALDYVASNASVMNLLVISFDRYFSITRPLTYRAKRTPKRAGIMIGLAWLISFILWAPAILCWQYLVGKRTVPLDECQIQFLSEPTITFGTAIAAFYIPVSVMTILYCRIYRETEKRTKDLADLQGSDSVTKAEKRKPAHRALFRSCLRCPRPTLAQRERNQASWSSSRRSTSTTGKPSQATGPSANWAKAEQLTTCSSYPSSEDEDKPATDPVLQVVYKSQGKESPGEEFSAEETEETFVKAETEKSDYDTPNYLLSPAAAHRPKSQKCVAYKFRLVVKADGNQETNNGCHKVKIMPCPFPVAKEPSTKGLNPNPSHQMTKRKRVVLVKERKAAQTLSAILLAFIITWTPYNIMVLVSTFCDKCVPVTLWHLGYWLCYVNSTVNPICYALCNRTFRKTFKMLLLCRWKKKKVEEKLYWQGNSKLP
In words: PDSP Secondary Binding target: CHRM5 - Compounds are tested at 10 uM concentration, plate are incubated at room temperature in the dark for 90 minutes. Reaction are stopped by vacuum filtration onto 0.3% polyethyleneimine soaked filter mats using Filtermate harvester. Scintillation cocktail is then melted onto microwave-dried filters on a hot plate and the radio activity is counted in Microbia counter.

Assay [2] concerns the target Kappa-type opioid receptor (Homo sapiens, UniProt P41145). In words: PDSP Secondary Binding target: OPRK1 - Compounds are tested at 10 uM concentration, plate are incubated at room temperature in the dark for 90 minutes. Reaction are stopped by vacuum filtration onto 0.3% polyethyleneimine soaked filter mats using Filtermate harvester. Scintillation cocktail is then melted onto microwave-dried filters on a hot plate and the radio activity is counted in Microbia counter.

Assay [3] has as its target T2, Alpha-2B adrenergic receptor (Homo sapiens, UniProt P18089).
T2 sequence (P18089 whole entry): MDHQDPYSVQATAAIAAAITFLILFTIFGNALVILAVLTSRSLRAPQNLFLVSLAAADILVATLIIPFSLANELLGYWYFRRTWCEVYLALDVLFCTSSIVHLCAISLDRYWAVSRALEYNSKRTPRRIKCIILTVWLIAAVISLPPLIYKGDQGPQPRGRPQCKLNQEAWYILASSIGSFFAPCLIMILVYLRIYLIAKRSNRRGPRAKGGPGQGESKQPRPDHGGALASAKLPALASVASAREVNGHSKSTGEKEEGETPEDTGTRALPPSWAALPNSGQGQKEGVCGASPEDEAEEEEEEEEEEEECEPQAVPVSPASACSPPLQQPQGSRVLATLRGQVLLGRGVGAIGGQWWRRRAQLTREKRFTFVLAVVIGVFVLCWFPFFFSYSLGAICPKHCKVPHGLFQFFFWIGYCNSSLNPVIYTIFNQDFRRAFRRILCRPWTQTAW
In words: PDSP Secondary Binding target: ADRA2B - Compounds are tested at 10 uM concentration, plate are incubated at room temperature in the dark for 90 minutes. Reaction are stopped by vacuum filtration onto 0.3% polyethyleneimine soaked filter mats using Filtermate harvester. Scintillation cocktail is then melted onto microwave-dried filters on a hot plate and the radio activity is counted in Microbia counter.

The target of assay [4] is T3, Alpha-2C adrenergic receptor (Homo sapiens, UniProt P18825).
T3 sequence (P18825 whole entry): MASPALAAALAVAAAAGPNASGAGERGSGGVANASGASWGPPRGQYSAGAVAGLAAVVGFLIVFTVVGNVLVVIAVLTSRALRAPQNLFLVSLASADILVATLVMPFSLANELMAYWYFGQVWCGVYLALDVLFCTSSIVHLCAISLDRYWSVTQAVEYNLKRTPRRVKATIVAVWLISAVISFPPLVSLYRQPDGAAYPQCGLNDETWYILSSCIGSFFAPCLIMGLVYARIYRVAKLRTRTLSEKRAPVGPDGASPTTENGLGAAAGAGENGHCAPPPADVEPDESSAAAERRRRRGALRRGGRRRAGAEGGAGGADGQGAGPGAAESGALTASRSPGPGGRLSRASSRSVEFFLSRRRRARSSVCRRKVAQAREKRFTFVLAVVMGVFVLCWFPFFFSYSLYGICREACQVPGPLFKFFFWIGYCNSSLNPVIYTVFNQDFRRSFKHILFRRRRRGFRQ
In words: PDSP Secondary Binding target: ADRA2C - Compounds are tested at 10 uM concentration, plate are incubated at room temperature in the dark for 90 minutes. Reaction are stopped by vacuum filtration onto 0.3% polyethyleneimine soaked filter mats using Filtermate harvester. Scintillation cocktail is then melted onto microwave-dried filters on a hot plate and the radio activity is counted in Microbia counter.

Assay [5] has as its target T4, Muscarinic acetylcholine receptor M1 (Homo sapiens, UniProt P11229).
T4 sequence (P11229 whole entry): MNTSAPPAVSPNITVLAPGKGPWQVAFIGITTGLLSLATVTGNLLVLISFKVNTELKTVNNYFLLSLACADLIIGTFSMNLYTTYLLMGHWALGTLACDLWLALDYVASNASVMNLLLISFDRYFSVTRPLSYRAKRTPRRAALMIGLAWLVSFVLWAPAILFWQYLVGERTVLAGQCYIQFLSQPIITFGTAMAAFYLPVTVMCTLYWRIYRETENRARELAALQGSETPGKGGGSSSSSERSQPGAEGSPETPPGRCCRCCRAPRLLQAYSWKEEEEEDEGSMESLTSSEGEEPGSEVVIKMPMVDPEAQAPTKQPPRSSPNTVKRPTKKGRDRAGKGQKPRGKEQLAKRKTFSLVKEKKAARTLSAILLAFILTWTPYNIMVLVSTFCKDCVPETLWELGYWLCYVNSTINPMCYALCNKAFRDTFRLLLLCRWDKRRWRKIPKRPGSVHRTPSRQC
The assay can be described thus: PDSP Secondary Binding target: CHRM1 - Compounds are tested at 10 uM concentration, plate are incubated at room temperature in the dark for 90 minutes. Reaction are stopped by vacuum filtration onto 0.3% polyethyleneimine soaked filter mats using Filtermate harvester. Scintillation cocktail is then melted onto microwave-dried filters on a hot plate and the radio activity is counted in Microbia counter.

Another assay has as its target Mu-type opioid receptor (Homo sapiens, UniProt P35372). In words: PDSP Secondary Binding target: OPRM1 - Compounds are tested at 10 uM concentration, plate are incubated at room temperature in the dark for 90 minutes. Reaction are stopped by vacuum filtration onto 0.3% polyethyleneimine soaked filter mats using Filtermate harvester. Scintillation cocktail is then melted onto microwave-dried filters on a hot plate and the radio activity is counted in Microbia counter.

A further assay deals with Histamine H2 receptor (Homo sapiens, UniProt P25021). The assay can be described thus: PDSP Secondary Binding target: HRH2 - Compounds are tested at 10 uM concentration, plate are incubated at room temperature in the dark for 90 minutes. Reaction are stopped by vacuum filtration onto 0.3% polyethyleneimine soaked filter mats using Filtermate harvester. Scintillation cocktail is then melted onto microwave-dried filters on a hot plate and the radio activity is counted in Microbia counter.
Chain of Histamine H2 receptor (P25021 whole entry): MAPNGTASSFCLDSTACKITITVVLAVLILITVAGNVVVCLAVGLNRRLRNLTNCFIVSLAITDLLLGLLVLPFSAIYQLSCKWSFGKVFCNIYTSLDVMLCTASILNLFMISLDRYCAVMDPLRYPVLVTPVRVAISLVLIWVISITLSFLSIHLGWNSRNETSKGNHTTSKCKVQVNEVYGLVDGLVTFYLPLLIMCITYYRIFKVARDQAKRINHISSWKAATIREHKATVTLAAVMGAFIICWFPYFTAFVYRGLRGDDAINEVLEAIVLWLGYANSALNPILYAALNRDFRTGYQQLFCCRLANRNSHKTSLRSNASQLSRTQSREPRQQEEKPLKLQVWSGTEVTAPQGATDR

Drawing on ChEMBL document CHEMBL5442175, “EUbOPEN Chemogenomics Library - PDSP Secondary Binding” (2024), this text covers Ki for 30 compounds.

The structures appear in SMILES notation. Structures can show the parent of a compound that is named as a salt.

Chain of Mu-type opioid receptor (P35372 whole entry): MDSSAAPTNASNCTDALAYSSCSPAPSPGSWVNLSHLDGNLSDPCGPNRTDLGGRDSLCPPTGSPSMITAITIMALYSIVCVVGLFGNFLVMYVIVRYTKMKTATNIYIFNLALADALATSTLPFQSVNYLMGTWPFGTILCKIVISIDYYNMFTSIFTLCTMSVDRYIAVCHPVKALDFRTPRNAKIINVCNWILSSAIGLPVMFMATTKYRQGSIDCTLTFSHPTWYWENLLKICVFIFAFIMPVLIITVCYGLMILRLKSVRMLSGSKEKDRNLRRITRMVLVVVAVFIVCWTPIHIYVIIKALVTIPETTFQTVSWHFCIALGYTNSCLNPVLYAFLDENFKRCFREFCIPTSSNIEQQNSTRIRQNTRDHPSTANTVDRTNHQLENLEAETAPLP
Chain of Kappa-type opioid receptor (P41145 whole entry): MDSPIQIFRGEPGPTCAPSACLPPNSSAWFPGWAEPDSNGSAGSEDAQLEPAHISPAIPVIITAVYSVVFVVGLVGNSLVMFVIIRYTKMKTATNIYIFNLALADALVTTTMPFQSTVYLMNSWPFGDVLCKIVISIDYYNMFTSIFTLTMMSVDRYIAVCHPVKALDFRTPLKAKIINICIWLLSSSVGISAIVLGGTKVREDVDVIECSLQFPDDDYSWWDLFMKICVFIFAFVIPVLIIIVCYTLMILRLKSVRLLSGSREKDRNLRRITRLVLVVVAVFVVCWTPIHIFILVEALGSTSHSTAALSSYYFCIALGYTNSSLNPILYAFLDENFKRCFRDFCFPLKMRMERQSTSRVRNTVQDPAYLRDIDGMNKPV

As to `S=C(NCCCc1c[nH]cn1)NCCCN(Cc1ccc(Cl)c(Cl)c1)c1ccc(Br)cn1`, the Ki in assay [1] worked out at 491 nM; in assay [2], 1110 nM; in assay [3], 512 nM; in assay [4], 536 nM; in assay [5] it was 2580 nM.
Consider `CN1CCC(=C2c3ccccc3CC(=O)c3sccc32)CC1` [KETOTIFEN FUMARATE], for which the Ki in assay [1] turned out to be 98.5 nM.
On to `COC(=O)C1=C(C)NC(C)=C(C(=O)OCCCN2CCC(c3ccccc3)(c3ccccc3)CC2)[C@H]1c1cccc([N+](=O)[O-])c1` [NIGULDIPINE], for which the Ki in assay [1] stood at 718 nM; in assay [2], 347 nM; at Mu-type opioid receptor, 129 nM.
For `Clc1cccc(COc2cncc(N3CCNCC3)n2)c1`, the inhibition constant (Ki) came to 293 nM in assay [1] and 955 nM in assay [5].
Regarding `Cc1ccc2c(c1)c1c(n2CCc2ccc(C)nc2)CCN(C)C1` [LATREPIRDINE], the Ki in assay [3] was found to be 45.8 nM; in assay [4], 2920 nM; on Histamine H2 receptor, 215 nM.
Take `O=S1(=O)c2cccc3cccc(c23)N1CCCN1CCN(c2ccc(F)cc2)CC1` [FANANSERIN]: the Ki in assay [2] came out at 2870 nM; in assay [3], 667 nM; in assay [4] it was 1030 nM.
As to `COc1ccc(NS(=O)(=O)c2sc3ccc(Cl)cc3c2C)cc1N1CCNCC1`, the figures for the inhibition constant (Ki) (in assay [2]; on Mu-type opioid receptor) were 898 nM and 3580 nM, respectively.
Turning to `N#Cc1ccc2[nH]cc(CCCCN3CCN(c4ccc5oc(C(N)=O)cc5c4)CC3)c2c1` [VILAZODONE HYDROCHLORIDE], the Ki at Mu-type opioid receptor came out at 730 nM; in assay [4] it was 1380 nM.
As for `OCc1cc(C(O)CNCCCCCCOCCCCc2ccccc2)ccc1O` (stereo not given) [SALMETEROL], the Ki in assay [1] came out at 971 nM; in assay [3], 1940 nM.
`C[C@H](Cc1cc2c(c(C(N)=O)c1)N(CCCO)CC2)NCCOc1ccccc1OCC(F)(F)F` [SILODOSIN]: the Ki in assay [3] worked out at 786 nM; in assay [4], 360 nM.
As for `Cc1nc2sccn2c(=O)c1CCN1CCC(=C(c2ccc(F)cc2)c2ccc(F)cc2)CC1` [RITANSERIN], the Ki in assay [2] came out at 1450 nM; at Mu-type opioid receptor, 344 nM; in assay [3], 655 nM; in assay [4], 375 nM.
With `COc1cc(-n2cnc3cc(-c4ccc(Cl)cc4)sc3c2=O)ccc1OCCN1CCCC1`, the values for the Ki in assay [1] and in assay [5] were 2640 nM and 1240 nM, respectively.
Take `CCCCCNC(=N)N/N=C/c1c[nH]c2ccc(OC)cc12` [TEGASEROD MALEATE]: the Ki on Mu-type opioid receptor turned out to be 2850 nM; in assay [3] it was 2840 nM.
For `CCOC(=O)c1c(C)[nH]c2ccc3c(c12)CN1CCc2cc(OC)ccc2C1O3` (stereo not given), the Ki in assay [2] was found to be 1940 nM; at Mu-type opioid receptor it was 1130 nM; in assay [3], 3230 nM; in assay [4] it was 585 nM; on Histamine H2 receptor, 2840 nM.
As to `CN(C)C(=O)N[C@H]1CC[C@H](CCN2CCN(c3cccc(Cl)c3Cl)CC2)CC1` [CARIPRAZINE HYDROCHLORIDE], the values for the Ki in assay [1], in assay [3] and in assay [4] were 1430 nM, 1090 nM and 234 nM, respectively.
`COc1ccc(NC(=O)c2ccc(-c3ccc(-c4noc(C)n4)cc3C)cc2)cc1OCCN(C)C`: the Ki in assay [3] came out at 667 nM; in assay [4], 704 nM; in assay [5], 1910 nM.
On to `C[C@@H](NCCCc1cccc(C(F)(F)F)c1)c1cccc2ccccc12` [CINACALCET HYDROCHLORIDE], for which the Ki in assay [2] was found to be 444 nM; on Mu-type opioid receptor, 1300 nM; in assay [4], 1570 nM; at Histamine H2 receptor, 2620 nM.
Take `CN1CCN(c2ccc(Nc3c4ccccc4nc4ccccc34)cc2)CC1`: the Ki in assay [5] came to 717 nM.
Take `CN1C2CCC1CC(OC(c1ccc(F)cc1)c1ccc(F)cc1)C2` (stereo not given): the inhibitory constant (Ki) in assay [5] was found to be 9.74 nM; at Histamine H2 receptor, 594 nM.
For `CN1CCCC(n2nc(Cc3ccc(Cl)cc3)c3ccccc3c2=O)CC1` (stereo not given) [AZELASTINE HYDROCHLORIDE], the Ki in assay [3] was found to be 230 nM.
For `CCCCN1CCC(COC(=O)c2cc(Cl)c(N)c3c2OCCO3)CC1`, in assay [4], the affinity corresponds to a Ki of 673 nM.
Regarding `Cc1nc(-c2ccc(-c3ccc(C(=O)N4CCc5cc6c(cc54)C4(CCN(C)CC4)CO6)cc3)c(C)c2)no1` [SB-224289], the Ki in assay [1] came to 344 nM; in assay [3], 2170 nM; in assay [5] it was 1260 nM.
With `CCc1ccc(OCc2ccccc2C(=O)Nc2ccc3nc(C)cc(N)c3c2)cc1`, the Ki turned out to be 495 nM at Mu-type opioid receptor, 3140 nM in assay [3] and 2330 nM in assay [5].
For the compound `COc1cccc([C@@H](C)NCCCc2ccccc2Cl)c1` [TECALCET HYDROCHLORIDE], the inhibitory constant (Ki) in assay [2] was found to be 1400 nM; on Mu-type opioid receptor it was 2210 nM; in assay [3], 955 nM; in assay [4], 1580 nM; at Histamine H2 receptor, 1400 nM.
For the compound `Cc1cc(C)cc(-c2cnc3cc(Cl)c(-c4cccc(O)c4)cc3c2OCCCN)c1`, the inhibition constant Ki came to 5570 nM on Mu-type opioid receptor and 846 nM in assay [4].
Take `CN1C[C@H](C(=O)N[C@]2(C)O[C@@]3(O)[C@@H]4CCCN4C(=O)[C@H](Cc4ccccc4)N3C2=O)C[C@@H]2c3cccc4[nH]cc(c34)C[C@H]21` [DIHYDROERGOTAMINE MESYLATE]: on Mu-type opioid receptor, the affinity, expressed as Ki, was 154 nM.
Turning to `Cc1nn(C)c(C)c1-c1cccc2c1CC[C@H](N(C)C)C2`, the figures for the Ki in assay [1] and in assay [3] were 308 nM and 108 nM, respectively.
For `O=c1ccc2ccc(OCCCCN3CCN(c4cccc5sccc45)CC3)cc2[nH]1` [BREXPIPRAZOLE], the Ki in assay [3] came to 191 nM; in assay [4], 59.9 nM.
For `NC[C@@H]1O[C@H](C23CC4CC(CC(C4)C2)C3)Cc2c1ccc(O)c2O`, in that order: 890 nM and 71.7 nM.
As to `CCc1nn(CCCN2CCN(c3cccc(Cl)c3)CC2)c(=O)n1CCOc1ccccc1` [NEFAZODONE HYDROCHLORIDE], the Ki in assay [3] came out at 192 nM; in assay [4], 359 nM.
